Experimental data reported in patent US8642611B2, “Alkynylpyrimidines and salts thereof, pharmaceutical compositions comprising same, methods of preparing same and uses of same” (Bayer Intellectual Property GmbH, priority 2007, dated 2014).

Assays:
human KDR = target: T1, human KDR (Homo sapiens, UniProt P35968); assay: VEGFR2 Kinase (KDR) HTRF Assay; format: biochemical; conditions: GST-tagged kinase domain of human KDR, 10 μM ATP; read-out: KDR activity (assay 4)
T1 construct: GST-tagged recombinant kinase domain of the human KDR; GST; made in house; host or cells: SF-9 insect cells
Source text: Assay 4: VEGFR2 Kinase (KDR) HTRF Assay
KDR inhibitory activity of compounds of the present invention was quantified employing the KDR HTRF assay as described in the following paragraphs.
GST-tagged recombinant kinase domain of the human KDR expressed in SF-9 cells was used as kinase. As substrate for the kinase reaction the biotinylated peptide biotin-Ahx-DFGLARDMYDKEYYSVG (C-terminus in acid form) was used which can be purchased e.g. form the company Biosynthan GmbH (Berlin-Buch, Germany). KDR was incubated for 45 min at 22° C. in the presence of different concentrations of test compounds in 5 μl assay buffer [50 mM Hepes/NaOH pH 7.0, 25 mM MgCl2, 5 mM MnCl2, 1.0 mM dithiothreitol, 0.1 mM sodium ortho-vanadate, 10 μM adenosine-tri-phosphate (ATP), 0.5 μM substrate, 0.001% (v/v) Nonidet-P40 (Sigma), 1% (v/v) dimethylsulfoxide]. The concentration of KDR was adjusted depending of the activity of the enzyme lot and was chosen appropriate to have the assay in the linear range. The reaction was stopped by the addition of 5 μL of a solution of HTRF detection reagents (0.1 μM streptavidine-XLent and 2 nM PT66-Eu-Chelate, an europium-chelate Labelled anti-phospho-tyrosine antibody from Perkin Elmer) in an aqueous EDTA-solution (125 mM EDTA, 0.2% (w/v) bovine serum albumin in 50 mM HEPES/NaOH pH 7.0).
The resulting mixture was incubated 1 h at 22° C. to allow the binding of the biotinylated phosphorylated peptide to the streptavidine-XLent and the PT66-Eu-Chelate. Subsequently the amount of phosphorylated substrate was evaluated by measurement of the resonance energy transfer from the PT66-Eu-Chelate to the streptavidine-XLent. Therefore, the fluorescence emissions at 620 nm and 665 nm after excitation at 350 nm was measured in a HTRF reader, e.g. a Rubystar (BMG Labtechnologies, Offenburg, Germany) or a ViewLux (Perkin-Elmer). The ratio of the emissions at 665 nm and at […] was taken as the measure for the amount of phosphorylated substrate. The data were normalised (enzyme reaction without inhibitor=0% inhibition, all other assay components but no enzyme=100% inhibition) and IC50 values were calculated by a 4 parameter fit using an inhouse software.

MVECs = assay: VEGF-Stimulated Endothelial Cell Proliferation Assay; format: cell-based; conditions: 72 h, 3 days, Alamar Blue, read-out: EC proliferation (assay 5)
Experimental: Assay 5: VEGF-Stimulated Endothelial Cell Proliferation Assay
MVECs are plated to collagen coated 48 well plates at a density of 30 000 cells per well in Earles's Medium M199 (complete with serum). After 4 h the medium is exchanged for medium containing 2% human serum without growth factors (200 μl) and cells are maintained overnight at low serum conditions. The other day the medium is exchanged for the same low serum medium containing in addition test compounds or vehicle in the appropriate concentrations using appropriate controls is exchanged. Five minutes later low serum medium containing 40 ng/ml VEGF is added (200 μl). Cells are cultured for 3 days before mixing with Alamar Blue® (dilution factor of 1: 20) and incubating it for 2 h at 37° C. Measurement of fluorescence intensity is done with the following filters: 528/25 Excitation, 590/35 Emission for the determination of the IC50 concentrations.
Culture Medium Composition
Earle's Medium 199 with stable Glutamine (PAA)+5 ml PenStrep (100×; 10000 Units/10 mg/ml) (PAA)+5 ml Non Essential Amino Acids (100×; without L-Glutamine) (PAA)+5 ml Sodium Pyruvat (100 mM) (PAA)+50 ml FCS (PAA)+50 ml HS+1 ml ECGS in Dulbecco's PBS without Ca2++Mg2+(5 mg/ml) (Sigma)+1 ml Heparin (2500 Units/ml)+2.5 ml Biotect-Protection medium (Biochrom AG)=complete Earle's M 199 medium
Earle's Medium 199 (PAA) with stable Glutamine+5 ml PenStrep (100×; 10000 Units/10 mg/ml) (PAA)+5 ml Non Essential Amino Acids (100×; without L-Glutamine) (PAA)+5 ml Sodium Pyruvat (100 mM) (PAA), 2% HS+2.5 ml Biotect- Protection medium (Biochrom AG)

T1 sequence (P35968 834-1162 limits assumed): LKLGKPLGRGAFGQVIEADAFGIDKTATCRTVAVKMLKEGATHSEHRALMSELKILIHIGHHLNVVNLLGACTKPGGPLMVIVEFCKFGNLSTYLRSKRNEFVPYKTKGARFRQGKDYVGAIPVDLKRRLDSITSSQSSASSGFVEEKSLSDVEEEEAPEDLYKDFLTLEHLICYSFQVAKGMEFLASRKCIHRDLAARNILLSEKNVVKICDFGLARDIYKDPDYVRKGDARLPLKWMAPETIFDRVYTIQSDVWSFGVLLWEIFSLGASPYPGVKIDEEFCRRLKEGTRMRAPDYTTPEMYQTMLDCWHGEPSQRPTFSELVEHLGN

Row | SMILES | IC50 (human KDR) | IC50 (MVECs)
1 | CCNc1nc(Nc2ccc(S(C)(=N)=O)cc2)ncc1C#Cc1ccc(OC)cc1 (racemic) [Example 1.26, (RS)-S-(4-[4-ethylamino-5-(4-methoxy-phenyl-ethynyl)-pyrimidin-2-ylamino]-phenyl)-S-methylsulfoximide] | < 500 nM | –
2 | C[C@H](CO)Nc1nc(Nc2ccc(S(C)(=N)=O)cc2)ncc1C#Cc1ccccc1 (mixture of isomers) [Example 1.2, (RS)-S-(4-[4-((R)-2-Hydroxy-1-methyl-ethylamino)-5-(phenylethynyl)-pyrimidin-2-ylamino]-phenyl)-S-methylsulfoximide] | < 500 nM | < 500 nM
3 | Cc1ccc(C#Cc2cnc(Nc3ccc(S(C)(=N)=O)cc3)nc2N[C@H](C)CO)cc1 (mixture of isomers) [Example 1.5] | < 500 nM | < 500 nM
4 | Cc1cc(C#Cc2cnc(Nc3cccc(S(C)(=N)=O)c3)nc2N[C@H](C)CO)ccc1F (mixture of isomers) [Example 1.20, (RS)-S-(3-[5-(4-Fluoro-3-methyl-phenyl-ethynyl)-4-((R)-2-hydroxy-1-methyl-ethylamino)-pyrimidin-2-ylamino]-phenyl)-S-methylsulfoximide] | < 500 nM | < 500 nM
5 | C[C@H](CO)Nc1nc(Nc2cccc(S(C)(=N)=O)c2)ncc1C#Cc1cccc(O)c1 (mixture of isomers) [Example 1.18, (RS)-S-(3-[4-((R)-2-Hydroxy-1-methyl-ethylamino)-5-(3-hydroxy-phenylethynyl)-pyrimidin-2-ylamino]-phenyl)-S-methylsulfoximide] | < 500 nM | < 500 nM
6 | Cc1cc(C#Cc2cnc(Nc3ccc(S(C)(=N)=O)cc3)nc2N[C@H](C)CO)ccc1F (mixture of isomers) [Example 1.13, (RS)-S-(4-[5-(4-Fluoro-3-methyl-phenyl-ethynyl)-4-((R)-2-hydroxy-1-methyl-ethylamino)-pyrimidin-2-ylamino]-phenyl)-S-methylsulfoximide] | < 500 nM | < 500 nM
7 | COc1ccc(C#Cc2cnc(Nc3cccc(S(C)(=N)=O)c3)nc2N[C@H](C)CO)cc1 (mixture of isomers) [Example 1.17, (RS)-S-(3-[4-((R)-2-Hydroxy-1-methyl-ethylamino)-5-(4-methoxy-phenylethynyl)-pyrimidin-2-ylamino]-phenyl)-S-methylsulfoximide] | < 500 nM | –
8 | CC(C)NC(=O)N=S(C)(=O)c1cccc(Nc2ncc(C#Cc3cccc(O)c3)c(N[C@H](C)CO)n2)c1 (mixture of isomers) [Example 1.15, (RS)-S-(3-[4-((R)-2-Hydroxy-1-methyl-ethylamino)-5-(3-hydroxy-phenylethynyl)-pyrimidin-2-ylamino]-phenyl)-N-(isopropylcarbamoyl)-S-methylsulfoximide] | < 500 nM | –
9 | CCc1ccc(C#Cc2cnc(Nc3ccc(S(C)(=N)=O)cc3)nc2N[C@H](C)CO)cc1 (mixture of isomers) [Example 1.8, (RS)-S-(4-[5-(4-Ethyl-phenylethynyl)-4-((R)-2-hydroxy-1-methyl-ethylamino)-pyrimidin-2-ylamino]-phenyl)-S-methylsulfoximide] | < 500 nM | –
10 | CCNc1nc(Nc2ccc(S(C)(=N)=O)cc2)ncc1C#Cc1ccc(F)c(C)c1 (racemic) [Example 1.24, (RS)-S-(4-[4-ethylamino-5-(4-fluoro-3-methyl-phenyl-ethynyl)-pyrimidin-2-ylamino]-phenyl)-S-methylsulfoximide] | < 500 nM | –
11 | C[C@H](CO)Nc1nc(Nc2ccc(S(C)(=N)=O)cc2)ncc1C#Cc1ccc(F)cc1 (mixture of isomers) [Example 1.9, (RS)-S-(4-[5-(4-Fluoro-phenyl-ethynyl)-4-((R)-2-hydroxy-1-methyl-ethylamino)-pyrimidin-2-ylamino]-phenyl)-S-methylsulfoximide] | < 500 nM | < 500 nM
12 | CCOC(=O)N=S(C)(=O)c1ccc(Nc2ncc(C#Cc3cccc(O)c3)c(N[C@H](C)CO)n2)cc1 (mixture of isomers) [Example 2.7] | < 500 nM | < 500 nM
13 | COc1ccc(C#Cc2cnc(Nc3ccc(S(C)(=N)=O)cc3)nc2N[C@H](C)CO)cc1 (mixture of isomers) [Example 1.1, (RS)—S-(4-[4-((R)-2-Hydroxy-1-methyl-ethylamino)-5-(4-methoxy-phenylethynyl)-pyrimidin-2-ylamino]-phenyl)-S-methylsulfoximide] | < 500 nM | < 500 nM
14 | Cc1ccccc1C#Cc1cnc(Nc2cccc(S(C)(=N)=O)c2)nc1N[C@H](C)CO (mixture of isomers) [Example 1.19, (RS)-S-(3-[4-((R)-2-Hydroxy-1-methyl-ethylamino)-5-(2-methyl-phenylethynyl)-pyrimidin-2-ylamino]-phenyl)-S-methylsulfoximide] | < 500 nM | < 500 nM
15 | CS(=N)(=O)c1cccc(Nc2ncc(C#Cc3cccc(O)c3)cn2)c1 (racemic) [Example 4.2, (RS)—S-(3-[5-(3-hydroxy-phenylethynyl)-pyrimidin-2-ylamino]-phenyl)-S-methylsulfoximide] | < 500 nM | –
16 | Cc1ccccc1C#Cc1cnc(Nc2ccc(S(C)(=N)=O)cc2)nc1N[C@H](C)CO (mixture of isomers) [Example 1.3] | < 500 nM | < 500 nM
